The record followed here is patent US20180125805A1, “PROPHYLACTIC/THERAPEUTIC AGENT FOR VIRUS INFECTIONS WHICH COMPRISES ALA COMPOUND” (SBI Pharmaceuticals Co., Ltd., priority 2015, published 2018).

“And” between values parts separate entries of the source, which are not always exact repeats. Identical values can stand only once.

The subject of the test is Hepatitis B virus (HBV) genotype C. The experiment in a line: HBV DNA content in culture supernatants of HBV-infected PXB hepatocytes, quantitative PCR with TaqMan probe. Conditions: for DNA content of HBV in the culture supernatants: PXB hepatocytes, replicates No. 1-3. It counts as cell-based, human hepatitis B virus. The method, then:
PXB hepatocytes prepared from “PXB-Mouse (registered trademark)” (manufactured by PhoenixBio) were used as test samples to examine the effect of a change in virus load by adding 5-ALA or the like to a medium. […] Therefore, PXB-Mouse is utilized as a human in vivo prediction model of hepatitis virus infections in pharmacokinetic studies.
Hepatitis B virus (HBV) genotype C was suspended in dHCGM medium (DMEM+10% FBS, 44 mM NaHCO3, 15 μg/mL L-proline, 0.25 μg/mL insulin, 50 […], 5 ng/mL EGF, 0.1 mM Asc-2P, 2% DMSO) containing 4% polyethylene glycol in the virus load of 2×10^6 per well to give 250 μL/well of a HBV infection medium. The sequence of HBV genotype C is disclosed in a public data bank such as GenBank and the accession number is AB246345.1.
5-ALA and sodium ferrous citrate (SFC) were blended in dHCGM medium at the concentrations shown in Table 1 below to prepare 250 μL each of test media. As a positive control medium, a medium prepared by dissolving 2.5 nM entecavir (manufactured by Santa Cruz Biotechnology, Inc.) in dHCGM medium was used.
PXB hepatocytes, which are primary cultured liver cells isolated by a two-step collagenase perfusion procedure (Yamasaki C, et al. Drug Metab Pharmacokinet. 2010, 25:539-550.) from 12- to 16-week-old PXB mice having a body weight of 11 g or more, were suspended in Dulbecco's modified Eagle's medium (DMEM) with 10% fetal bovine serum (FBS) (DMEM+10% FBS) containing 100 IU/mL penicillin G, 100 μg/mL streptomycin and 20 mM HEPES, seeded in a 24-well plate coated with type I collagen at a density of 4×10^5 cells/well, and incubated at 37° C. under 5% CO2. The next day, the medium was removed, and 500 μL of DMEM+10% FBS was then added to each well. Thereafter, the medium was removed again, 250 μL of the above-mentioned HBV infection medium or a non-infection medium and 250 μL each of the above-mentioned test medium were added to each well to provide 500 μL each of evaluation media. The evaluation media were incubated at 37° C. under 5% CO2 for 20 to 28 hours. On day 1, 2, 7, 12 and 17 after HBV virus infection, the media were replaced by 500 μL each of the above-mentioned evaluation media. On day 12, 17 and 22 after the virus infection, culture supernatants were collected and the DNA content of HBV in the supernatants was determined by a quantitative PCR assay with TaqMan probe. The incubation period after the virus infection was 22 days. The results are shown in the following Tables 2 and 3 and the graph of FIG. 1. The ordinate of FIG. 1 indicates the DNA content of HBV in the culture supernatants.
(Quantitative PCR measures a nucleic acid by following its amplification.)

For the molecule `NCC(=O)CCC(=O)O` [ALA, 5-aminolevulinic acid], the “DNA content of HBV in the culture supernatants” value (from here on “DNA content of HBV”) is 6.0 log copies/mL and 6.1 log copies/mL and 5.8 log copies/mL (ALA 1 mM, day 12 after virus infection); 6.0 log copies/mL (2×) and 5.8 log copies/mL (ALA 1 mM, day 17 after virus infection); 6.1 log copies/mL and 5.9 log copies/mL and 6.0 log copies/mL (ALA 1 mM, day 22 after virus infection).
For `C=C1[C@H](CO)[C@@H](O)C[C@@H]1n1cnc2c(=O)[nH]c(N)nc21` [ETV, entecavir, reference compound], the “DNA content of HBV” value was 4.4 log copies/mL (ETV 2.5 nM (positive control), day 12 after virus infection); 4.2 log copies/mL and 4.8 log copies/mL and 4.1 log copies/mL (ETV 2.5 nM (positive control), day 17 after virus infection); 4.4 log copies/mL and 4.0 log copies/mL and 3.9 log copies/mL (ETV 2.5 nM (positive control), day 22 after virus infection).
Turning to sodium ferrous citrate [SFC], the “DNA content of HBV” value is 6.1 log copies/mL (2×) and 6.2 log copies/mL (SFC 0.5 mM, day 12 after virus infection); 6.3 log copies/mL and 6.4 log copies/mL (2×) (SFC 0.5 mM, day 17 after virus infection); 6.5 log copies/mL (SFC 0.5 mM, day 22 after virus infection). The “proliferation of HBV virus (FIG. 1)” value (SFC 500 μM, day 12 and 17 after the virus infection, P<0.05) is “significantly inhibited”.
